Measured values from PubChem BioAssay (NCI).
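In this assay, cells in 96-well plates receive the compound at five concentrations for 48 hours. Endpoints are linearly interpolated between the surrounding concentrations. Definition used: TGI = concentration required for complete inhibition of growth.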

Assays:
Assay in all cases: inhibition of tumour cell growth, NCI panel, 48 h
786-0 renal = test system: 786-0 renal
A498 renal = test system: A498 renal
A549 NSCLC = test system: A549 NSCLC
ACHN renal = test system: ACHN renal
BT-549 breast = test system: BT-549 breast
CAKI-1 renal = test system: CAKI-1 renal
CCRF-CEM leukemia = test system: CCRF-CEM leukemia
COLO 205 colon = test system: COLO 205 colon
DU-145 prostate = test system: DU-145 prostate
EKVX NSCLC = test system: EKVX NSCLC
HCC-2998 colon = test system: HCC-2998 colon
HCT-116 colon = test system: HCT-116 colon
HCT-15 colon = test system: HCT-15 colon
HL-60(TB) leukemia = test system: HL-60(TB) leukemia
HOP-62 NSCLC = test system: HOP-62 NSCLC
HOP-92 NSCLC = test system: HOP-92 NSCLC
HS 578T breast = test system: HS 578T breast
HT29 colon = test system: HT29 colon
IGROV1 ovarian = test system: IGROV1 ovarian
K-562 leukemia = test system: K-562 leukemia
KM12 colon = test system: KM12 colon
LOX IMVI melanoma = test system: LOX IMVI melanoma
M14 melanoma = test system: M14 melanoma
MALME-3M melanoma = test system: MALME-3M melanoma
MDA-MB-231 breast = test system: MDA-MB-231 breast
MDA-MB-435 = test system: MDA-MB-435
MDA-N = test system: MDA-N
MOLT-4 leukemia = test system: MOLT-4 leukemia
NCI-H226 lung = test system: NCI-H226 lung
NCI-H23 lung = test system: NCI-H23 lung
NCI-H460 lung = test system: NCI-H460 lung
NCI-H522 lung = test system: NCI-H522 lung
OVCAR-3 ovarian = test system: OVCAR-3 ovarian
OVCAR-4 ovarian = test system: OVCAR-4 ovarian
OVCAR-5 ovarian = test system: OVCAR-5 ovarian
PC-3 prostate = test system: PC-3 prostate
RPMI-8226 leukemia = test system: RPMI-8226 leukemia
SF-268 CNS = test system: SF-268 CNS
SF-295 CNS = test system: SF-295 CNS
SK-MEL-2 melanoma = test system: SK-MEL-2 melanoma
SK-MEL-28 melanoma = test system: SK-MEL-28 melanoma
SK-MEL-5 melanoma = test system: SK-MEL-5 melanoma
SK-OV-3 ovarian = test system: SK-OV-3 ovarian
SN12C renal = test system: SN12C renal
SNB-19 CNS = test system: SNB-19 CNS
SNB-75 CNS = test system: SNB-75 CNS
SR leukemia = test system: SR leukemia
SW-620 colon = test system: SW-620 colon
T-47D breast = test system: T-47D breast
TK-10 renal = test system: TK-10 renal
U251 CNS = test system: U251 CNS
UACC-257 melanoma = test system: UACC-257 melanoma
UACC-62 melanoma = test system: UACC-62 melanoma
UO-31 renal = test system: UO-31 renal
MCF7 breast = test system: MCF7 breast
NCI/ADR-RES ovarian = test system: NCI/ADR-RES ovarian
OVCAR-8 ovarian = test system: OVCAR-8 ovarian
RXF 393 renal = test system: RXF 393 renal
SF-539 CNS = test system: SF-539 CNS

## Cc1cccc(/C=C2\CCCCCC2=O)c1
786-0 renal
  TGI: > 100 µM
A498 renal
  TGI: > 100 µM
A549 NSCLC
  TGI: > 100 µM
ACHN renal
  TGI: > 100 µM
BT-549 breast
  TGI: > 100 µM
CAKI-1 renal
  TGI: > 100 µM
CCRF-CEM leukemia
  TGI: 82.8 µM
COLO 205 colon
  TGI: > 100 µM
DU-145 prostate
  TGI: > 100 µM
EKVX NSCLC
  TGI: > 100 µM
HCC-2998 colon
  TGI: > 100 µM
HCT-116 colon
  TGI: > 100 µM
HCT-15 colon
  TGI: > 100 µM
HL-60(TB) leukemia
  TGI: > 100 µM
HOP-62 NSCLC
  TGI: > 100 µM
HOP-92 NSCLC
  TGI: > 100 µM
HS 578T breast
  TGI: > 100 µM
HT29 colon
  TGI: > 100 µM
IGROV1 ovarian
  TGI: > 100 µM
K-562 leukemia
  TGI: > 100 µM
KM12 colon
  TGI: > 100 µM
LOX IMVI melanoma
  TGI: > 100 µM
M14 melanoma
  TGI: > 100 µM
MALME-3M melanoma
  TGI: > 100 µM
MDA-MB-231 breast
  TGI: > 100 µM
MDA-MB-435
  TGI: > 100 µM
MDA-N
  TGI: > 100 µM
MOLT-4 leukemia
  TGI: > 100 µM
NCI-H226 lung
  TGI: > 100 µM
NCI-H23 lung
  TGI: > 100 µM
NCI-H460 lung
  TGI: > 100 µM
NCI-H522 lung
  TGI: > 100 µM
OVCAR-3 ovarian
  TGI: > 100 µM
OVCAR-4 ovarian
  TGI: > 100 µM
OVCAR-5 ovarian
  TGI: > 100 µM
PC-3 prostate
  TGI: > 100 µM
RPMI-8226 leukemia
  TGI: > 100 µM
SF-268 CNS
  TGI: > 100 µM
SF-295 CNS
  TGI: > 100 µM
SK-MEL-2 melanoma
  TGI: > 100 µM
SK-MEL-28 melanoma
  TGI: > 100 µM
SK-MEL-5 melanoma
  TGI: > 100 µM
SK-OV-3 ovarian
  TGI: > 100 µM
SN12C renal
  TGI: > 100 µM
SNB-19 CNS
  TGI: > 100 µM
SNB-75 CNS
  TGI: > 100 µM
SR leukemia
  TGI: > 100 µM
SW-620 colon
  TGI: > 100 µM
T-47D breast
  TGI: > 100 µM
TK-10 renal
  TGI: > 100 µM
U251 CNS
  TGI: > 100 µM
UACC-257 melanoma
  TGI: > 100 µM
UACC-62 melanoma
  TGI: > 100 µM
UO-31 renal
  TGI: > 100 µM

## O[C@H]1[C@@H]2OC[C@@H](O)[C@H](OCc3ccccc3)[C@@](COCc3ccccc3)(O2)[C@@H]1OCc1ccccc1
786-0 renal
  TGI: 45.4 µM
A498 renal
  TGI: 31.4 µM
A549 NSCLC
  TGI: 33.3 µM
ACHN renal
  TGI: 30.4 µM
BT-549 breast
  TGI: 32.2 µM
CAKI-1 renal
  TGI: 0.0898 µM
CCRF-CEM leukemia
  TGI: 42.1 µM
COLO 205 colon
  TGI: 32.8 µM
DU-145 prostate
  TGI: 35.5 µM
EKVX NSCLC
  TGI: 30.3 µM
HCT-116 colon
  TGI: 47.5 µM
HCT-15 colon
  TGI: 30.9 µM
HL-60(TB) leukemia
  TGI: 68.6 µM
HOP-62 NSCLC
  TGI: 34.4 µM
HOP-92 NSCLC
  TGI: 26.3 µM
HS 578T breast
  TGI: 40.7 µM
HT29 colon
  TGI: 28.7 µM
IGROV1 ovarian
  TGI: 27.5 µM
K-562 leukemia
  TGI: 67 µM
KM12 colon
  TGI: 35.6 µM
LOX IMVI melanoma
  TGI: 32.7 µM
M14 melanoma
  TGI: 36.3 µM
MALME-3M melanoma
  TGI: 28.6 µM
MCF7 breast
  TGI: 39.6 µM
MDA-MB-231 breast
  TGI: 30.9 µM
MDA-MB-435
  TGI: 32.1 µM
MDA-N
  TGI: 29.4 µM
MOLT-4 leukemia
  TGI: > 100 µM
NCI-H23 lung
  TGI: 32.3 µM
NCI-H460 lung
  TGI: 53.8 µM
NCI-H522 lung
  TGI: 27.7 µM
NCI/ADR-RES ovarian
  TGI: 32 µM
OVCAR-3 ovarian
  TGI: 19.4 µM
OVCAR-4 ovarian
  TGI: 24.4 µM
OVCAR-5 ovarian
  TGI: 30 µM
OVCAR-8 ovarian
  TGI: 31 µM
PC-3 prostate
  TGI: 28.3 µM
RPMI-8226 leukemia
  TGI: 31.9 µM
RXF 393 renal
  TGI: 39.8 µM
SF-268 CNS
  TGI: 42.8 µM
SF-295 CNS
  TGI: 26.1 µM
SF-539 CNS
  TGI: 31 µM
SK-MEL-2 melanoma
  TGI: 29.7 µM
SK-MEL-28 melanoma
  TGI: 27.3 µM
SK-OV-3 ovarian
  TGI: 36.6 µM
SN12C renal
  TGI: 27.9 µM
SNB-19 CNS
  TGI: 30 µM
SNB-75 CNS
  TGI: 18.7 µM
SR leukemia
  TGI: > 100 µM
SW-620 colon
  TGI: 33.1 µM
TK-10 renal
  TGI: 32.5 µM
U251 CNS
  TGI: 30.4 µM
UACC-257 melanoma
  TGI: 28.7 µM
UACC-62 melanoma
  TGI: 23.5 µM
UO-31 renal
  TGI: 30.6 µM
